According to ChEMBL document CHEMBL4507294, “Data for DCP probe MSD-CYP11B2” (2021):

How the values were obtained:
[1] = target: Activin receptor type-1-like (Homo sapiens) (UniProt P37023); details: Compound concentration 1000.0 nM
[2] = target: ALK tyrosine kinase receptor (Homo sapiens) (UniProt Q9UM73); details: Compound concentration 1000.0 nM
[3] = target: Mitogen-activated protein kinase kinase kinase 6 (Homo sapiens) (UniProt O95382); details: Compound concentration 1000.0 nM
[4] = target: Bone morphogenetic protein receptor type-1A (Homo sapiens) (UniProt P36894); details: Compound concentration 1000.0 nM
[5] = test system: Serine/threonine-protein kinase B-raf (Homo sapiens), P15056 [V600E]; details: Compound concentration 1000.0 nM
[6] = target: Calcium/calmodulin-dependent protein kinase type 1G (Homo sapiens) (UniProt Q96NX5); details: Compound concentration 1000.0 nM
[7] = target: Cyclin-dependent kinase 19 (Homo sapiens) (UniProt Q9BWU1); details: Compound concentration 1000.0 nM
Sequence of Cyclin-dependent kinase 19 (Homo sapiens) (Q9BWU1 whole entry): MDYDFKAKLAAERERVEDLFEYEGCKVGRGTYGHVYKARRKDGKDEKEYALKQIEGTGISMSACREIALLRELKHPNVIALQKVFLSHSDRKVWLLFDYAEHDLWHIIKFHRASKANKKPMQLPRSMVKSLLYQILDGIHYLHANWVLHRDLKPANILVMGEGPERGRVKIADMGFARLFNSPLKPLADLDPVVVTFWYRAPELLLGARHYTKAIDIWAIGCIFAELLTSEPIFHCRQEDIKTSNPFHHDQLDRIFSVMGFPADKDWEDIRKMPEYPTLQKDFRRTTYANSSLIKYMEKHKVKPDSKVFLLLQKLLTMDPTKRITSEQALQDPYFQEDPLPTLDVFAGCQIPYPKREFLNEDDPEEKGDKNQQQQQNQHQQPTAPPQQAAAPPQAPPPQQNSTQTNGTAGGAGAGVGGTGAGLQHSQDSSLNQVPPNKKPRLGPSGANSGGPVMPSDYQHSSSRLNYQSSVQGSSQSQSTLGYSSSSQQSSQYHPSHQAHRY

[8] = target: Dual specificity protein kinase CLK3 (Homo sapiens) (UniProt P49761); details: Compound concentration 1000.0 nM
[9] = target: Serine/threonine-protein kinase 17A (Homo sapiens) (UniProt Q9UEE5); details: Compound concentration 1000.0 nM
[10] = test system: Epidermal growth factor receptor (Homo sapiens), P00533 [G719C]; details: Compound concentration 1000.0 nM
[11] = test system: Epidermal growth factor receptor (Homo sapiens), P00533 [L861Q]; details: Compound concentration 1000.0 nM
[12] = target: Ephrin type-A receptor 2 (Homo sapiens) (UniProt P29317); details: Compound concentration 1000.0 nM
[13] = target: Ephrin type-A receptor 7 (Homo sapiens) (UniProt Q15375); details: Compound concentration 1000.0 nM
Sequence of Ephrin type-A receptor 7 (Homo sapiens) (Q15375 28-998 limits assumed): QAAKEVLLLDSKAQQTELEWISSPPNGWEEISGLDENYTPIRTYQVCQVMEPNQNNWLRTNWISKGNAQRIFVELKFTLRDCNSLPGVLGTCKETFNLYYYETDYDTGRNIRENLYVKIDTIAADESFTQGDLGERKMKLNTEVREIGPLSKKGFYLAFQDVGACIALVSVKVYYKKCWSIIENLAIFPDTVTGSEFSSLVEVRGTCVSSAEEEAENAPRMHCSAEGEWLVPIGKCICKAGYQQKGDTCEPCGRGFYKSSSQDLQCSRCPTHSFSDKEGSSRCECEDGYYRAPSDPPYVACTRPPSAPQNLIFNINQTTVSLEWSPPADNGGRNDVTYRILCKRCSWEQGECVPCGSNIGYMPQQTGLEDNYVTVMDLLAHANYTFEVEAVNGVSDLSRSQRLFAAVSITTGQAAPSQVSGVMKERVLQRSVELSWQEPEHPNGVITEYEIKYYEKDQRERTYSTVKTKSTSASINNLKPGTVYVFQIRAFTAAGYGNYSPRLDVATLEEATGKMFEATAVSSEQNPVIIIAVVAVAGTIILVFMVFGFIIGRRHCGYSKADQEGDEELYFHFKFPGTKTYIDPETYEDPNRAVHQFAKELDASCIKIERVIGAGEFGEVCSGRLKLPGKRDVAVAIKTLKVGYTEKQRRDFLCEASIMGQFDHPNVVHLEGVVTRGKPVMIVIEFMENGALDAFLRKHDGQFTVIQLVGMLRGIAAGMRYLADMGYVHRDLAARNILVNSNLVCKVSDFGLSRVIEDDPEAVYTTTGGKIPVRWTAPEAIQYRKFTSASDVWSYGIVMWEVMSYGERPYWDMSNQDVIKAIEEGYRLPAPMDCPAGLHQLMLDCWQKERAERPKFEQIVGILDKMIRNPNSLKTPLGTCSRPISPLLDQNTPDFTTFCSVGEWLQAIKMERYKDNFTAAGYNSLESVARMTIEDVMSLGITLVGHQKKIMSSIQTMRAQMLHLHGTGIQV

[14] = target: Receptor tyrosine-protein kinase erbB-2 (Homo sapiens) (UniProt P04626); details: Compound concentration 1000.0 nM
[15] = test system: Receptor-type tyrosine-protein kinase FLT3 (Homo sapiens), P36888 [N841I]; details: Compound concentration 1000.0 nM
[16] = target: Glycogen synthase kinase-3 alpha (Homo sapiens) (UniProt P49840); details: Compound concentration 1000.0 nM
Sequence of Glycogen synthase kinase-3 alpha (Homo sapiens) (P49840 2-483 limits assumed): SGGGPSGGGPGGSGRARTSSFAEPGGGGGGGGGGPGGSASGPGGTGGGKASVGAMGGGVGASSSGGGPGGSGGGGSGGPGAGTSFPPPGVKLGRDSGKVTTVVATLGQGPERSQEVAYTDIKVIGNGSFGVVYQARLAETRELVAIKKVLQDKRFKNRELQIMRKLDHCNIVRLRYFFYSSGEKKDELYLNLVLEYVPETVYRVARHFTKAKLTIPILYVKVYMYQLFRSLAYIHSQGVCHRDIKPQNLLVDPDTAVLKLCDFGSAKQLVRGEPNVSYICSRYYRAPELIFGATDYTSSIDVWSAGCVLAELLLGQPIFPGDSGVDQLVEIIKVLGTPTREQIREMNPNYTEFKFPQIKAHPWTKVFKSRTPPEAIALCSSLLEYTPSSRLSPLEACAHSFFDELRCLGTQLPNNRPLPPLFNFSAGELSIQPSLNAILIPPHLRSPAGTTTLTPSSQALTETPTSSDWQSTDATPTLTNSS

[17] = target: Serine/threonine-protein kinase LATS1 (Homo sapiens) (UniProt O95835); details: Compound concentration 1000.0 nM
[18] = target: Serine/threonine-protein kinase MAK (Homo sapiens) (UniProt P20794); details: Compound concentration 1000.0 nM
[19] = target: Mitogen-activated protein kinase kinase kinase kinase 2 (Homo sapiens) (UniProt Q12851); details: Compound concentration 1000.0 nM
Sequence of Mitogen-activated protein kinase kinase kinase kinase 2 (Homo sapiens) (Q12851 whole entry): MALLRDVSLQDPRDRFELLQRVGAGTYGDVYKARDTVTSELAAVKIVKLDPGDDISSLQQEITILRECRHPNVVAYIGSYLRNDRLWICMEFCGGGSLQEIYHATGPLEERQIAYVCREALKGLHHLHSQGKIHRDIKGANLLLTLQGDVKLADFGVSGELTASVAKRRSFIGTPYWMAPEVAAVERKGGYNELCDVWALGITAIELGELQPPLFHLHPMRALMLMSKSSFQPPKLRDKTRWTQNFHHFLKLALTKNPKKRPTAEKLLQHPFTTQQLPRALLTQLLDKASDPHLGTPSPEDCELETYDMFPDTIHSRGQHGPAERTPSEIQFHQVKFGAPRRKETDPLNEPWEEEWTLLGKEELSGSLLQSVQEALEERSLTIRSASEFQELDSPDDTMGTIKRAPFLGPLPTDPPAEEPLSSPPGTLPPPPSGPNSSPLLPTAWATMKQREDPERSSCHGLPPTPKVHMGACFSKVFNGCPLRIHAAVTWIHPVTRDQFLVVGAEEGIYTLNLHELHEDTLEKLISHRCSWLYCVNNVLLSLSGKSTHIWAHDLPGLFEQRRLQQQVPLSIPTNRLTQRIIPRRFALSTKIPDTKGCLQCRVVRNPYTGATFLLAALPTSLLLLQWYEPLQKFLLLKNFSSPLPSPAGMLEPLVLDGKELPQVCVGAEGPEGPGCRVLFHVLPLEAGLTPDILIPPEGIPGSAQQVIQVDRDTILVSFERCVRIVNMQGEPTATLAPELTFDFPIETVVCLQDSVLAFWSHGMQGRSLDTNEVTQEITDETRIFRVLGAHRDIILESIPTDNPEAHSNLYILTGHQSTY

[20] = target: Serine/threonine-protein kinase 4 (Homo sapiens) (UniProt Q13043); details: Compound concentration 1000.0 nM
[21] = target: Serine/threonine-protein kinase mTOR (Homo sapiens) (UniProt P42345); details: Compound concentration 1000.0 nM
[22] = target: Serine/threonine-protein kinase Nek10 (Homo sapiens) (UniProt Q6ZWH5); details: Compound concentration 1000.0 nM
[23] = target: Serine/threonine-protein kinase OSR1 (Homo sapiens) (UniProt O95747); details: Compound concentration 1000.0 nM
Sequence of Serine/threonine-protein kinase OSR1 (Homo sapiens) (O95747 2-527 limits assumed): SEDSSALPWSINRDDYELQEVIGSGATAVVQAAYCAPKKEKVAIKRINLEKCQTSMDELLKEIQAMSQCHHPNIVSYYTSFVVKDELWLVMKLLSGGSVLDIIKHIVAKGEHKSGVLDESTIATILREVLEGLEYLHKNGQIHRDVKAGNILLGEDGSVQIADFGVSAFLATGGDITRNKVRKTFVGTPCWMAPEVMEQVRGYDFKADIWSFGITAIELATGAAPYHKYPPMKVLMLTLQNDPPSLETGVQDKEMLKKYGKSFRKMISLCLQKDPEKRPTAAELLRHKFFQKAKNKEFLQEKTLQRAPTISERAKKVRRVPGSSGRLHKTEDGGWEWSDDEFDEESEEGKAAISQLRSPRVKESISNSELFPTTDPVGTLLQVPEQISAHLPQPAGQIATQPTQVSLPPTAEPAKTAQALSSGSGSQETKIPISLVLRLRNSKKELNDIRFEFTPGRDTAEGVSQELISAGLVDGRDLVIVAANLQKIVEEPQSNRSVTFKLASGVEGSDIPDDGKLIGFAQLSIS

[24] = target: Phosphatidylinositol 4,5-bisphosphate 3-kinase catalytic subunit gamma isoform (Homo sapiens) (UniProt P48736); details: Compound concentration 1000.0 nM
[25] = target: Phosphatidylinositol 4-kinase beta (Homo sapiens) (UniProt Q9UBF8); details: Compound concentration 1000.0 nM
[26] = target: Serine/threonine-protein kinase D2 (Homo sapiens) (UniProt Q9BZL6); details: Compound concentration 1000.0 nM
[27] = target: cGMP-dependent protein kinase 2 (Homo sapiens) (UniProt Q13237); details: Compound concentration 1000.0 nM
[28] = target: Serine/threonine-protein kinase RIO1 (Homo sapiens) (UniProt Q9BRS2); details: Compound concentration 1000.0 nM
[29] = target: Ribosomal protein S6 kinase alpha-1 (Homo sapiens) (UniProt Q15418); details: Compound concentration 1000.0 nM
[30] = target: Serine/threonine-protein kinase 36 (Homo sapiens) (UniProt Q9NRP7); details: Compound concentration 1000.0 nM
[31] = target: Tyrosine-protein kinase SYK (Homo sapiens) (UniProt P43405); details: Compound concentration 1000.0 nM
[32] = target: Angiopoietin-1 receptor (Homo sapiens) (UniProt Q02763); details: Compound concentration 1000.0 nM
Sequence of Angiopoietin-1 receptor (Homo sapiens) (Q02763 whole entry): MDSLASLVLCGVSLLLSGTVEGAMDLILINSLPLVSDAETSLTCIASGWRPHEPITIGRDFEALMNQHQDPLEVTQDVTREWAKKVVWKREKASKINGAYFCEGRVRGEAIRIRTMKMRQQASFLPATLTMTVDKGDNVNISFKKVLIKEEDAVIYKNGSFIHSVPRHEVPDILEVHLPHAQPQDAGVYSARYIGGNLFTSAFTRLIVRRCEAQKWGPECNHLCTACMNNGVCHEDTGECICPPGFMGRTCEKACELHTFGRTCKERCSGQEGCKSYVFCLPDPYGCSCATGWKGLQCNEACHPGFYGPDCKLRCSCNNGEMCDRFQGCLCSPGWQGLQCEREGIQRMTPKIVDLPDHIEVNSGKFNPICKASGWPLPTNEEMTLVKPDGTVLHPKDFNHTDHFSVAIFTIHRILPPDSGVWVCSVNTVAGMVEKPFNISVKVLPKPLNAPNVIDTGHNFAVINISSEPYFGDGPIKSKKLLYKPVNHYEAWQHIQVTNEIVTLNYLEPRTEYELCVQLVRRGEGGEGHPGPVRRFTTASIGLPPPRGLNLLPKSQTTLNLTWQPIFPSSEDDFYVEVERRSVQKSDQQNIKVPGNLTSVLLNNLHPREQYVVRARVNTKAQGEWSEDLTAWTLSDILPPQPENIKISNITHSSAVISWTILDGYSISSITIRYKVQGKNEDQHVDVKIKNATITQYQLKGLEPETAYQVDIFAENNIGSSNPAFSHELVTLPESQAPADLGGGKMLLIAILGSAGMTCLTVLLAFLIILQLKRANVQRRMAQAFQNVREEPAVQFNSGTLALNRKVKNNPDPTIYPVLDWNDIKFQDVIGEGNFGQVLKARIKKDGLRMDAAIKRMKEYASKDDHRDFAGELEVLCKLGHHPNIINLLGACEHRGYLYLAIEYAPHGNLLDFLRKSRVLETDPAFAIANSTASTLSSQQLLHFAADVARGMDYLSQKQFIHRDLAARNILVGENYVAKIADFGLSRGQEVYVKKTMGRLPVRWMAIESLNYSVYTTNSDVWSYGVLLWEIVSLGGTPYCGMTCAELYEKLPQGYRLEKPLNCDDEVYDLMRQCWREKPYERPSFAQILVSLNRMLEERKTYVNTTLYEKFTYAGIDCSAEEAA

[33] = target: Serine/threonine-protein kinase tousled-like 2 (Homo sapiens) (UniProt Q86UE8); details: Compound concentration 1000.0 nM
[34] = target: Non-receptor tyrosine-protein kinase TNK1 (Homo sapiens) (UniProt Q13470); details: Compound concentration 1000.0 nM
[35] = target: Serine/threonine-protein kinase 25 (Homo sapiens) (UniProt O00506); details: Compound concentration 1000.0 nM
[36] = target: T1, 5-hydroxytryptamine receptor 3A (Homo sapiens) (UniProt P46098); details: Compound concentration 10.0 uM
T1 sequence (whole entry): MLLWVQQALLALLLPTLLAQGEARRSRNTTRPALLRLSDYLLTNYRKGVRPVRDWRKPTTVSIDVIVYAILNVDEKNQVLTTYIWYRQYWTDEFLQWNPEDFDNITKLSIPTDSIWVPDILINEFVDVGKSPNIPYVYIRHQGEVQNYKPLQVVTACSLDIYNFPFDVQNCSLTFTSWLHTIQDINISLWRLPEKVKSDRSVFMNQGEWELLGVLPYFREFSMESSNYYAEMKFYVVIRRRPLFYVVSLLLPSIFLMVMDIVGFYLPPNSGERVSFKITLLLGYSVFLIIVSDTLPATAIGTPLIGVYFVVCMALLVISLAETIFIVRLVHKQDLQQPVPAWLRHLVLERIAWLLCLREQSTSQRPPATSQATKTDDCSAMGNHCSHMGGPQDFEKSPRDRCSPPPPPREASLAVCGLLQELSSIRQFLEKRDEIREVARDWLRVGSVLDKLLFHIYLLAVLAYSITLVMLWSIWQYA

[37] = target: Sodium-dependent dopamine transporter (Homo sapiens) (UniProt Q01959); details: Compound concentration 10.0 uM
[38] = target: Histamine H1 receptor (Homo sapiens) (UniProt P35367); details: Compound concentration 10.0 uM
Sequence of Histamine H1 receptor (Homo sapiens) (P35367 whole entry): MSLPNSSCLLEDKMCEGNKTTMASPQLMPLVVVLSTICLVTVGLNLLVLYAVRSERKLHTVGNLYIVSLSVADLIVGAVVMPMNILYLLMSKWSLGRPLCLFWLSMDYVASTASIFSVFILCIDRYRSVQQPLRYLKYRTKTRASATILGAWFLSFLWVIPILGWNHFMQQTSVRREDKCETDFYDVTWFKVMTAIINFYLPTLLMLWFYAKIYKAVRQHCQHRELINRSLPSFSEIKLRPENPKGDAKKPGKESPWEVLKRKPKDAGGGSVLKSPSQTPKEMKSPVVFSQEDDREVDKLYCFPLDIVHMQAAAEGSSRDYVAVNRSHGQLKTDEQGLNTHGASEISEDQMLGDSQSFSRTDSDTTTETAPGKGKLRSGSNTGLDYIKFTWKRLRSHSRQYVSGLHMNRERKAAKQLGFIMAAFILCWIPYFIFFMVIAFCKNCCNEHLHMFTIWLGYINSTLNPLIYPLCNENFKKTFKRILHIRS

[39] = target: Muscarinic acetylcholine receptor M5 (Homo sapiens) (UniProt P08912); details: Compound concentration 10.0 uM

CC(C)(O)c1cncc(-c2nc3ccc(F)cc3n2C2CC2)c1 [MSD-CYP11B2]
inactive: residual activity [1] 100% | residual activity [2] 77% | residual activity [3] 100% | residual activity [4] 88% | residual activity [5] 98% | residual activity [6] 100% | residual activity [7] 94% | residual activity [8] 100% | residual activity [9] 94% | residual activity [10] 100% | residual activity [11] 100% | residual activity [12] 100% | residual activity [13] 100% | residual activity [14] 100% | residual activity [15] 100% | residual activity [16] 100% | residual activity [17] 82% | residual activity [18] 100% | residual activity [19] 98% | residual activity [20] 100% | residual activity [21] 96% | residual activity [22] 100% | residual activity [23] 100% | residual activity [24] 77% | residual activity [25] 100% | residual activity [26] 100% | residual activity [27] 90% | residual activity [28] 100% | residual activity [29] 100% | residual activity [30] 93% | residual activity [31] 100% | residual activity [32] 93% | residual activity [33] 100% | residual activity [34] 100% | residual activity [35] 100% | inhibition [36] -6.88% | inhibition [37] 1.47% | inhibition [38] 9.54% | inhibition [39] -2.81%

FC(F)(F)c1ccc2c(c1)nc(-c1cccnc1)n2C1CC1 [MSD-CYP11B2-Negative-control]
inactive: residual activity [1] 100% | residual activity [2] 100% | residual activity [3] 100% | residual activity [4] 93% | residual activity [5] 100% | residual activity [6] 100% | residual activity [7] 100% | residual activity [8] 100% | residual activity [9] 100% | residual activity [10] 92% | residual activity [11] 100% | residual activity [12] 100% | residual activity [13] 100% | residual activity [14] 100% | residual activity [15] 100% | residual activity [16] 100% | residual activity [17] 86% | residual activity [18] 100% | residual activity [19] 73% | residual activity [20] 100% | residual activity [21] 80% | residual activity [22] 100% | residual activity [23] 100% | residual activity [24] 92% | residual activity [25] 94% | residual activity [26] 100% | residual activity [27] 78% | residual activity [28] 100% | residual activity [29] 100% | residual activity [30] 84% | residual activity [31] 100% | residual activity [32] 100% | residual activity [33] 100% | residual activity [34] 100% | residual activity [35] 99% | inhibition [36] -8.72% | inhibition [37] 15.3% | inhibition [38] 9.49% | inhibition [39] -6.15%
